The test system of test [1] is Staphylococcus epidermidis. Nature of the test: Viability PCR (dCt, 16S rDNA) after dye treatment and photolysis, cultured Staphylococcus epidermidis. The class given is cell-based. As to conditions: 50 uM dye, 3D; for dCt, modification of DNA in live cells: live S. epidermidis, 470 nm light 15 min, FIG. 1, 2B. Here is the method:
Escherichia coli, Salmonella enterica, and Bacillus subtilis were cultured in tryptic soy broth (TSB). Staphylococcus epidermidis was cultured in nutrient broth (NB). Bacteria were cultured overnight at 37° C. The following day, the absorbance of the cultures at 600 nm was measured and the cultures were diluted to OD600=1.0 in growth media. Bacteria cultures were pipetted into 1.5 mL screw-top tubes at 400 uL per tube. For dead cell samples, tubes were placed in a 95° C. heat block for 5 minutes, and then allowed to return to room temperature. PMA products (cat #40013 and 40019, Biotium) and selected compounds of the disclosure (104.1, 014, or 020, where indicated) were diluted to 2.5 mM in water, and then 8 uL was added to the bacterial culture for a final concentration of 50 uM. Cultures were incubated on a rocker in the dark at room temperature for 10 minutes, and then exposed to 470 nm wavelength light in the PMA-Lite LED device for 15 minutes. Samples were centrifuged at 5000×g for 10 minutes and the supernatant was aspirated off. DNA was then purified from bacterial pellets using the Qiagen Blood and Tissue kit and eluted in 100 uL elution buffer.
PCR was performed using the universal primers DG74 and RW01 which amplify a 370-bp region of the 16S rDNA. Forward Primer DG74 sequence: 5′-AGG AGG TGA TCC AAC CGC A-3′. Reverse Primer RW01 sequence: 5′-AACTGGAGGAAGGTGGGGAT-3′. The following PCR mix was prepared for each sample: 12.5 uL Fast EvaGreen Master Mix (Biotium), 1 uL 5 uM primer mix, 9.5 uL water, and 2 uL isolated bacterial DNA. […] 25 sec, 72° C., acquiring fluorescence after this step. Using the Rotor-Gene Q software, normalized fluorescence and Ct values were calculated. The change in Ct (dCt) caused by a dye was calculated by subtracting the Ct of the untreated bacteria from the Ct of the dye-treated bacteria.
Live Staphylococcus epidermidis (a gram-positive bacteria) was either left untreated, treated with one of two versions of commercial PMA products (cat #40013 and 40019, Biotium), or treated with a compound of the present disclosure (compound 104.1, 014, or 020). Viability PCR was performed and the effect of each dye was measured by determining the dCt. The dCt was calculated by subtracting the Ct of untreated sample from dye-treated sample. […]
(§1) Live or dead Bacillus subtilis (FIG. 2A) or Staphylococcus epidermidis (FIG. 2B) were either left untreated, treated with one of two versions of commercial PMA products (cat #40013 and cat #40019, Biotium), or treated with Compound 104.1. Viability PCR was performed and the effect of each dye was measured by determining the dCt. The dCt was calculated by subtracting the Ct of untreated sample from dye-treated sample. […]

In the next test the test system is Bacillus subtilis. Description: Viability PCR (dCt, 16S rDNA) after dye treatment and photolysis, cultured Bacillus subtilis. In kind it is cell-based. Particulars: 50 uM dye, compared with PMA, FIG. 2A, 3C. Here is the method:
(§2) Escherichia coli, Salmonella enterica, and Bacillus subtilis were cultured in tryptic soy broth (TSB). Staphylococcus epidermidis was cultured in nutrient broth (NB). Bacteria were cultured overnight at 37° C. The following day, the absorbance of the cultures at 600 nm was measured and the cultures were diluted to OD600=1.0 in growth media. Bacteria cultures were pipetted into 1.5 mL screw-top tubes at 400 uL per tube. For dead cell samples, tubes were placed in a 95° C. heat block for 5 minutes, and then allowed to return to room temperature. […]
(§3) PCR was performed using the universal primers DG74 and RW01 which amplify a 370-bp region of the 16S rDNA. […] 25 sec, 72° C., acquiring fluorescence after this step. Using the Rotor-Gene Q software, normalized fluorescence and Ct values were calculated. The change in Ct (dCt) caused by a dye was calculated by subtracting the Ct of the untreated bacteria from the Ct of the dye-treated bacteria.
as §1

In the next test the test system is Escherichia coli. Description: Viability PCR (dCt, 16S rDNA) after dye treatment and photolysis, cultured Escherichia coli. The class given is cell-based. Particulars: 50 uM dye, compared with PMA, FIG. 3A. How it is done: as §2, §3
(§4) Live or dead Escherichia coli (FIG. 3A), Salmonella enterica (FIG. 3B), Bacillus subtilis (FIG. 3C) or Staphylococcus epidermidis (FIG. 3D) were either left untreated, treated with PMA, or treated with Compound 014. Viability PCR was performed and the effect of each dye was measured by determining the dCt. The dCt was calculated by subtracting the Ct of untreated sample from dye-treated sample. […]

The next test has as its system Salmonella enterica. Description: Viability PCR (dCt, 16S rDNA) after dye treatment and photolysis, cultured Salmonella enterica. In kind it is cell-based. As to conditions: 50 uM dye, compared with PMA, FIG. 3B. Here is the method:
as §2, §3, §4

The test system of a further test is swabbed S. epidermidis. Description: Viability PCR (dCt) in Staphylococcus epidermidis collected by swabbing. In kind it is cell-based. As to conditions: live and heat-killed S. epidermidis dried on plastic and swabbed; FIG. 5. Here is the method:
As in Example 16, Staphylococcus epidermidis was cultured in nutrient broth (NB) overnight at 37° C. The following day, the absorbance of the cultures at 600 nm was measured and the cultures were diluted to OD600=1.0 in growth media. For dead cell samples, bacteria were placed in a 95° C. heat block for 5 minutes, and then allowed to return to room temperature. 1200 uL of live or dead bacteria were spread separately onto sterile plastic petri dishes and air-dried for four hours. To mimic a common method of bacterial sample collection, a sterile cotton swab was moistened with NB, swabbed on the plate and swirled in a tube containing 1200 uL NB. This process was repeated 3 times each for live and dead bacteria, until most of the bacteria from the plate had been transferred into the media. 400 uL of swabbed bacteria was pipetted into tubes, and either left untreated, treated with PMA dye, or treated with Compound 014, as described in Example 16. Viability PCR was performed and the effect of each dye was measured by determining the dCt. The dCt was calculated by subtracting the Ct of untreated sample from dye-treated sample. […] The dCt values are shown above each bar.

Test [2] concerns Jurkat cells. Nature of the test: Viability staining of live and heat-killed Jurkat cells, flow cytometry. The class given is cell-based, human. As to conditions: 1 uM. How it is done:
Jurkat cells were maintained in RPMI media supplemented with 10% fetal bovine serum, 10 mM HEPES, and 1 mM sodium pyruvate. Cells were counted and diluted to 1.0×10^6 cells/mL in growth media. Cells were pelleted by centrifugation at 350×g and resuspended in PBS. Half of the cells were heat-killed by incubation in a 56° C. water bath for 45 minutes. After they had cooled to room temperature, live and dead cells were combined in a 1:1 ratio, pelleted and washed once with PBS, and resuspended in PBS at 1.0×10^6 cells/mL. Aliquots of 1 mL were pipetted into 1.5 mL microcentrifuge tubes. Working in the dark, PMA and compound 104.1 were diluted to 1 mM in water. 1 uL of the indicated compound was added to 1 mL of cells for a final concentration of 1 uM. Cells were incubated in the dark, rocking, for 10 minutes, then exposed to light in the PMA-Lite for 15 minutes. Cells were transferred to FACS tubes and pelleted. Half of the tubes were placed at 4° C. in the dark (unfixed). […]
Stained cells were analyzed by flow cytometry on a BD LSRII. For detection of PMA and compound 104.1 staining, samples were excited with the 488 nm laser, and the signal was detected in the PE-Texas Red channel. Flow cytometry data was analyzed using FlowJo software from […]. […]
On the technique in general: Flow cytometry measures light scatter and fluorescence of single cells or particles in a stream.

In test [3] the test system is Jurkat cells. Description: Viability staining of live and heat-killed Jurkat cells, fluorescence microscopy. In kind it is cell-based, human. Particulars: Cy3 filter. How it is done: 1:1 mixtures of live and heat-killed Jurkat cells were prepared and treated with PMA, as described in Example 21. The cells were transferred to a black optical bottom 96-well plate and imaged on an Olympus IX71 inverted fluorescence microscope using a Cy3 filter cube and Retiga 2000R Fast 1394 digital CCD camera with 300 msec exposure time. Imaging results are provided in FIG. 7A-D. The stained cells were either left unfixed (FIGS. 7A and B) or fixed and permeabilized (FIGS. 7C and D). Fluorescence images (FIGS. 7A and C) show stained cells, while merged fluorescence/phase contrast images (FIGS. 7B and D) show stained and unstained cells.

The next test concerns Staphylococcus aureus. As to conditions: samples collected by swabbing from surfaces; cited from earlier work.
Test [4] concerns Mycobacterium avium subspecies paratuberculosis (MAP). As to conditions: PMA qPCR; cited from earlier work. (In general: Quantitative PCR measures a nucleic acid by following its amplification.)
The subject of test [5] is Salmonella serovar Enteritidis. Particulars: cited from earlier work.
Test [6] deals with relatively short amplicons. As to conditions: cited from earlier work.

Molecules are shown by their SMILES. Entries after “also recorded” stand apart in the source; their conditions may differ.

For `C[N+](C)(C)CCNC(=O)CCOCCOCCOCCOCCNC(=O)CCCCC[n+]1c(-c2ccccc2)c2cc(N)ccc2c2ccc(N=[N+]=[N-])cc21` [Compound 014], the “dCt, effect on dead cells” value was “greater effect on dead cells” in [1] (heat-killed S. epidermidis, compared with PMA, FIG. 2B); “greater effect on dead cells” in the test on Bacillus subtilis (heat-killed B. subtilis); “greater effect on dead cells” in the test on Escherichia coli (heat-killed E. coli); “greater effect on dead cells” in the test with Salmonella enterica (heat-killed S. enterica). Also, in test [1], the “dCt, modification of DNA in live cells” value is reported as “little to none; also recorded: less of an effect on live cells”. The “dCt, effect on live cells” value in the test with Bacillus subtilis (live B. subtilis), in the test with Escherichia coli (live E. coli) and with Salmonella enterica (live S. enterica) was “less of an effect on live cells” each time. The “live/dead discrimination by dCt” value in the test on swabbed S. epidermidis was “showed a large difference between live and dead cells”.
For the compound `[N-]=[N+]=Nc1ccc2c3ccc(N)cc3c(-c3ccccc3)[n+](CCCCCC(=O)NCCOCCOCCOCCOCCC(=O)N[C@@H](CS(=O)(=O)[O-])C(=O)O)c2c1` [Compound 020], the “dCt, modification of DNA in live cells” value in test [1] was “little to none”.
Turning to `CC[N+](C)(CC)CCC[n+]1c(-c2ccccc2)c2cc(N=[N+]=[N-])ccc2c2ccc(N)cc21` [PMA, propidium monoazide], the “dCt, modification of DNA in live cells” value in test [1] is “causes some modification of DNA”. Further, the “live/dead discrimination by dCt” value in the test on swabbed S. epidermidis is “did not function well to discriminate live and dead”. Also, the “staining of live and dead cells after fixation and permeabilization” value in the test with Jurkat cells [2] (2% formaldehyde, 0.1% Triton X-100, FIG. 6B, 6D) was “increase in staining of live cells (loss of specificity)”. In addition, the “staining of live and dead cells, unfixed” value in the test on Jurkat cells [2] (unfixed cells, 488 nm laser, PE-Texas Red channel, FIG. 6A, 6C) is reported as “bright, specific staining of dead cells”. Moreover, the “fluorescence discrimination of stained and unstained cells, fixed and permeabilized” value in the test with Jurkat cells [3] (fixed and permeabilized cells, FIG. 7C, 7D) is “PMA staining is retained after fixation, with clear discrimination between PMA-positive and PMA-negative cells”. The “fluorescence discrimination of stained and unstained cells, unfixed” value in the test with Jurkat cells [3] (unfixed cells, FIG. 7A, 7B) is “greater difference in fluorescence intensity between PMA-positive and PMA-negative cells”. Also, in the test on Staphylococcus aureus, the “determination of amount of living cells” value is on record as “does not allow the determination of amount of living cells”. Also, the “entry of dye into viable cells” value in test [4] is on record as “found to enter viable MAP”; in test [5] (viable Salmonella serovar Enteritidis), “found to enter viable Salmonella serovar Enteritidis”. Further, the “suppression of qPCR signal from killed bacteria” value in [5] (killed Salmonella serovar Enteritidis) is given as “ineffective in suppressing qPCR signal from the killed bacteria”. The “effect of PMA treatment on amplification of short amplicons” value in [6] is on record as “not affected by PMA treatment”.

(Values after US10570463B2, “Nucleic acid modifying agents and uses thereof” (BIOTIUM, INC., priority 2014, dated 2020).)
